Experimental data from patent US20020115704A1, “Treatment method” (priority 2000, published 2002).

Assays:
[1] = system: 5-HT1A receptors or 5-HT1D receptors; conditions: cited from earlier work
[2] = system: menopausal women; conditions: oral; cited from earlier work
[3] = system: males; conditions: apomorphine: human males; cited from earlier work
[4] = system: postmenopausal women; conditions: cited from earlier work
[5] = system: ovariectomised, oestrogen+progesterone-primed female rats; conditions: cited from earlier work
[6] = system: dopaminergic, GABAergic, serotonergic (such as 5-HT1A) receptors; conditions: cited from earlier work
[7] = system: female Macaca arctoides; experiment: Sexual behaviour of the male with the drug-treated female Macaca arctoides; type: in vivo; conditions: for Sexual desire and arousal in female primates: conclusion from the male's behaviour with the treated female; for Copulations with ejaculation (FIG. 1A) / Copulations without ejaculation (FIG. 1B) / Total number of copulations, with and without ejaculation pooled (FIG. 1C) / Number of short time mounts (FIG. 1D): i.m. to the female, n=4, vs saline; for Copulations with ejaculation (FIG. 1A) / Copulations without ejaculation (FIG. 1B): atipamezole 0.03 and 0.3 mg/kg, apomorphine 0.125 and 0.25 mg/kg, or combinations, 20 min observation; for Total number of copulations, with and without ejaculation pooled (FIG. 1C) / Number of short time mounts (FIG. 1D): same doses; for Total number of copulations, with and without ejaculation pooled (FIG. 1C): atipamezole F2,11=5.00, p=0.05; for Number of short time mounts (FIG. 1D): atipamezole F2,11=7.55, p<0.03
Procedure: This example investigated whether the administration a specific alpha2-adrenoceptor antagonist, atipamezole, a dopamine agonist, apomorphine, or their combination into a female Macaca arctoides produces changes in the sexual behaviour of the female with a male.
The experiments were performed using four female and two male Macaca arctoides monkeys born in captivity. The ages of the adult females were 13 and 16 years and those of the aged females 23 and 25 years. The ages of the males were 14 and 23 years. The females were sexually mature and with normal hormonal cycles.
During the testing period, the monkeys were housed individually in stainless-steel cages. They were fed commercially available food twice each day, and water was always available. Females were weighed before the first injection of each series and doses were adjusted accordingly when appropriate. Sexual behaviour was tested between 11.00 and 16.00 h. The same test cage and testing procedure were used in all experiments. One experienced observer, blind to the treatment, viewed the animals at a distance of about 0.5 m from the cage.
During the testing period, the couple being tested was housed in a single case (0.6×0.9×1.2 m) with two compartments. During the first 10 min of each session, a sliding wall made of steel bars separated the male and the female in the test cage. The monkeys could see and touch each other through this wall. Between the testing sessions, the female being tested was housed in another room with no visual contact with the male.
After i.m. administration of the studied compounds to the female, the observation of the sexual behaviour began as described subsequently. Ten minutes after the end of drug administration, the sliding wall between the male and the female was pulled away and the observation of sexual activity continued for the next 20 min. At the end of the observation period, the sliding wall was replaced and the female was taken to her home cage in another room.
The occurrence and duration of the following parameters were observed: perineal investigation, mounting, masturbation, ejaculation, male and female grooming, eye contact, tying, yawning, self-scratching, direct male aggression towards the female and teeth grinding. A single mount leading to ejaculation was counted as ejaculation. A single mount not leading to ejaculation was counted as a short term mount. If the interval between mounts was >30 s, the mount was considered to be separate. In Macaca arctoides, male ejaculation reached in copulation or masturbation can be recognised clearly on the basis of its stereotypic manifestations as described in Linnankoski et al. (Arch. Sexual Behav. 10:207-222, 1981).
The experiments were performed once every other day for three days/week. In each female, the effect of atipamezole (Orion Pharma, Turku, Finland) alone (0.03 and 0.3 mg/kg and saline control) was tested during the first two weeks. The effect of apomorphine (Sigma, St.Louis, Mo.) alone (0.125 and 0.25 mg/kg and saline control) was tested during the next two weeks. The combination of a low dose of atipamezole (0.03 mg/kg) with a low dose apomorphine (0.125 mg/kg), a high dose of atipamezole (0.3 mg/kg) with a high dose of apomorphine (0.25 mg/kg), or saline control (two saline injections) was studied during the last two weeks. Owing to the difference in their pharmacokinetic properties, atipamezole (or its saline control) was always administered 10 min before testing session and apomorphine (or its saline control) 20 min before the testing session. The order of testing various doses of drugs and saline control was randomised within each two week testing period. Each dose or the combination was tested twice and the average result of these two sessions was used in final calculations. The experiments were performed in a double-blind fashion.

[8] = system: α2-adrenoceptor; conditions: cited from earlier work
[9] = system: males; conditions: cited from earlier work

c1ccc2c(c1)OCC(C1=NCCN1)O2 (centres unmarked) [Idazoxan]
Affinity on 5-HT1A receptors or 5-HT1D receptors [1]: have affinity

Cc1ccc(N(CC2=NCCN2)c2cccc(O)c2)cc1 [phentolamine]
Sexual arousal, such as self-reported lubrication [2]: mild improvement
Sexual arousal i.e. erections [3]: increase

CCCc1nn(C)c2c(=O)[nH]c(-c3cc(S(=O)(=O)N4CCN(C)CC4)ccc3OCC)nc12 [sildenafil]
Sexual function [4]: did not improve the sexual function significantly
Sexual arousal i.e. erections [3]: increase

COc1ccc2c(c1)CCN1C[C@H]3CCCN(S(C)(=O)=O)[C@H]3C[C@@H]21 [deleguamine, delequamine]
Sexual behaviour, lordosis response [5]: facilitate
Affinity on 5-HT1A receptors or 5-HT1D receptors [1]: have affinity

COc1ccccc1N1CCN(CCN2C(=O)c3ccccc3C(C)(C)C2=O)CC1 [ARC 239]
Affinity on 5-HT1A receptors or 5-HT1D receptors [1]: have affinity

CC1c2ccccc2CN1CC1=NCCN1 (centres unmarked) [BRL 44408]
Affinity on 5-HT1A receptors or 5-HT1D receptors [1]: have affinity

COC(=O)[C@@H]1[C@H]2C[C@H]3c4[nH]c5ccccc5c4CCN3C[C@@H]2CC[C@@H]1O [yohimbine]
Affinity for other neurotransmitter receptors (dopaminergic, GABAergic, serotonergic, benzodiazepine) [6]: has affinity

CCC1(c2c[nH]cn2)Cc2ccccc2C1 [atipamezole, 4-(2-ethyl-2,3-dihydro-1H-inden-2-yl)-1H-imidazole]
Sexual desire and arousal in female primates [7]: increases
Copulations with ejaculation (FIG. 1A) [7]: failed to be statistically significant
Copulations without ejaculation (FIG. 1B) [7]: failed to be statistically significant
Total number of copulations, with and without ejaculation pooled (FIG. 1C) [7]: significant increase
Number of short time mounts (FIG. 1D) [7]: dose-dependent increase
α2-/α1-adrenoceptor selectivity ratio [8]: high
Sexual activity (ejaculations produced by copulation and/or masturbation) [9]: increase
Affinity for other neurotransmitter receptors (dopaminergic, GABAergic, serotonergic, benzodiazepine) [6]: negligible affinity

CN1CCc2cccc3c2[C@H]1Cc1ccc(O)c(O)c1-3 [apomorphine]
Sexual desire and arousal in female primates [7]: ineffective
Copulations with ejaculation (FIG. 1A) [7]: failed to be statistically significant
Copulations without ejaculation (FIG. 1B) [7]: failed to be statistically significant
Total number of copulations, with and without ejaculation pooled (FIG. 1C) [7]: not significant
Number of short time mounts (FIG. 1D) [7]: no significant effect
Sexual behaviour, lordosis response [5]: facilitate
Sexual arousal i.e. erections [3]: increased

COC1(C2=NCCN2)COc2ccccc2O1 (centres unmarked) [RX821002, 2-methoxy idazoxan]
Affinity on 5-HT1A receptors or 5-HT1D receptors [1]: have affinity
